The text below walks through data of ChEMBL document CHEMBL4190222, “Sulawesins A-C, Furanosesterterpene Tetronic Acids That Inhibit USP7, from a Psammocinia sp. Marine Sponge” (J Nat Prod, 2017).

Calls of active or inactive are those of the source. No cut-off for these calls is given here.

The target of assay [1] is T1, Ubiquitin carboxyl-terminal hydrolase 7 (Homo sapiens, UniProt Q93009). As to the kind of experiment: Inhibition of recombinant His6-tagged human USP7 expressed in insect expression system […] using ubiquitin-Rh110 as substrate preincubated for 30 mins followed by substrate addition measured after 180 mins by fluorescence assay.
Target sequence in this assay (Q93009 whole entry, looked up): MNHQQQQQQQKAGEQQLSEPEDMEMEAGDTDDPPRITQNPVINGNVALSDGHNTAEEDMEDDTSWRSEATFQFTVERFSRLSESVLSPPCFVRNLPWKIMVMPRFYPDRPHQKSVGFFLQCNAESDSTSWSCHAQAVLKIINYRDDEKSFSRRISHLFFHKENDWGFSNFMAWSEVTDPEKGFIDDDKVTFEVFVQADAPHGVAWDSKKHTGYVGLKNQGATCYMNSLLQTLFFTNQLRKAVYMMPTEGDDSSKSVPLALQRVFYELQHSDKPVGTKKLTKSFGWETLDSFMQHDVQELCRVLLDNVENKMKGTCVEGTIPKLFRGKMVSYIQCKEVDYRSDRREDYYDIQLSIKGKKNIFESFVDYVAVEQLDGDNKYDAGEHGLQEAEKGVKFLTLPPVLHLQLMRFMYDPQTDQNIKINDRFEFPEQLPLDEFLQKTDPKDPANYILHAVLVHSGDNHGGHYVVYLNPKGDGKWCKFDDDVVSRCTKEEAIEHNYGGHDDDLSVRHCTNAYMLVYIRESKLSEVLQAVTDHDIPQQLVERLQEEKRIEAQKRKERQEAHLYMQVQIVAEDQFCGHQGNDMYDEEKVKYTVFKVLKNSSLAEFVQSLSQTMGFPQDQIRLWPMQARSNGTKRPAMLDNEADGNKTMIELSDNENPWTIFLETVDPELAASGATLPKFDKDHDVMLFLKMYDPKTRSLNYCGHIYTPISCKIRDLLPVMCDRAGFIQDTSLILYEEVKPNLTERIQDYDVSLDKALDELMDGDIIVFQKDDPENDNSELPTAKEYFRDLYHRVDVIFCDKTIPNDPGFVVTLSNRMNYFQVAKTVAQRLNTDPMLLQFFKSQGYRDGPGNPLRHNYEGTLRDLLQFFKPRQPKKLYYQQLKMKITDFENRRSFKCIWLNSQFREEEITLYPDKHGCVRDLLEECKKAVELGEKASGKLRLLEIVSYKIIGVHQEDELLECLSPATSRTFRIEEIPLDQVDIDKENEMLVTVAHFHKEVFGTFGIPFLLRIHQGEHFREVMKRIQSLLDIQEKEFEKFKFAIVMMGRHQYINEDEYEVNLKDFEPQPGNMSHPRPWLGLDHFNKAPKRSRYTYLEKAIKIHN
For assay [2], the target named is T1, Ubiquitin carboxyl-terminal hydrolase 7. As to the kind of experiment: Inhibition of recombinant His6-tagged human USP7 expressed in insect expression system using ubiquitin-Rh110 as substrate preincubated for 30 mins followed by substrate addition measured after 180 mins by fluorescence assay.
Target sequence in this assay (Q93009 whole entry): as the sequence (Q93009 whole entry, looked up) above

As to `CCN1C(=O)C=CC1=O`, in assay [1], the inhibition result is “Active”.

As a reminder, the IC50 is the concentration that inhibits the measured activity by half. Regarding `CC1=C(O)/C(=C/C(C)CC/C=C(/C)CCCC2=CC(=O)[C@@H](c3ccoc3)[C@@H]2O)OC1=O` (mixture of isomers), the IC50 in assay [2] was determined as 4.6 µM.

Turning to `CC1=C(O)/C(=C/C(C)CCC/C(C)=C/CCC2=CC(=O)[C@@H](c3ccoc3)[C@@H]2O)OC1=O` (mixture of isomers), the IC50 in assay [2] came out at 2.8 µM.

Regarding `CC1=C(O)/C(=C/C(C)CC/C=C(/C)CCCc2coc(Cc3ccoc3)c2)OC1=O` (mixture of isomers), in assay [2], the IC50 came out at 3.5 µM.

In the case of `CC1=C(O)/C(=C/C(C)CCC/C(C)=C/CCc2coc(Cc3ccoc3)c2)OC1=O` (racemic), the IC50 in assay [2] is 2.7 µM.
